From patent US20030134848A1, “Substituted 1-aza-2-imino-heterocycles and their use as nicotinic acetylcholin receptors activators” (priority 2000, published 2003)

Target: T1, human α4β2 subtype of nicotinic acetylcholine receptors (Homo sapiens, UniProt P17787+P43681)
T1 construct: expressed in transfected cells; host or cells: Xenopus laevis oocytes injected with hnACh-R α4 and β2 cRNA (pSP64 polyA vector)
Experiment: Agonist activity at human α4β2 nicotinic acetylcholine receptors expressed in Xenopus oocytes (membrane potential holding method)
Format: cell-based
Settings: 100 μM test compound vs response at 10 μM acetylcholine (100%)
Description: The agonist effect in human α4β2 subtype of nicotinic acetylcholine receptors are examined by using human nicotinic acetylcholine receptors prepared in oocytes of Xenopus laevis, which is injected with cRNA from the corresponding cloning cDNA of human α4 and β2 subunits of nicotinic acetylcholine receptors, and to measure the expression of the electric response by adding the test compounds to perfusion solution by means of membrane potential holding method.
The agonist activities of the compounds of the present invention at human 4β2 subtype of nicotinic acetylcholine receptors was evaluated by the following method, which was modified method described by Papke R. L., Thinschmidt J. S., Moulton B. A., Meyer E. M. & Poirier A., Br. J. Pharmacol., 120, 429-438 (1997).
(1) Preparation of cRNA of Human α4β2 Subtype of Nicotinic Acetylcholine Receptors
The cloning of human nicotinic acetylcholine receptor (hnACh-R) α4 cDNA and hnAC-R β2 cDNA were performed, in accordance with the conventional manners, by synthesizing the each DNA primers corresponding to the sequences of hnACh-R α4 cDNA and hnACh-R β2 cDNA [Monteggia L. M. et al., Gene, 155, 189-193 (1995); and Anand R., & Lindstrom J., Nucl. Acids Res., 18, 4272 (1990)], and obtained hnACh-R α4 cDNA and hnACh-R β2 cDNA by polymerase chain reaction (PCR), respectively. The obtained hnACh-R α4 cDNA and hnACh-R β2 cDNA were inserted to the cRNA expression vector (pSP64 polyA) having SP6 RNA promoter to construct hnACh-R α4/pSP64 polyA and hnACh-R β2/pSP64 polyA, respectively. After cutting from expression vector by restriction enzyme (EcoRI), transcription was performed by affecting SP6 RNA polymerase in the presence of cap analogues to obtain hnACh-R α4 cRNA and hnACh-R β2 cRNA, respectively.
(2) Expression of Human α4β2 Subtype Nicotinic Acetylcholine Receptors in Xenopus oocytes
Oocytes were purchased from Kitanihonseibutsukyohzai Co., Ltd., which were already enucleated from Xenopus laevis, and used in this experiment.
The oocytes were treated with collagenase (Sigma type I; 1 mg/ml) in calcium-free modified Birth's solution (88 mM of NaCl, 1 mM of KCl, 2.4 mM of NaHCO3, 0.82 mM of MgSO4, 15 mM of HEPES, pH 7.6) under gently stirring at room temperature for 90 minutes, and washed out the enzyme from the tissue. Then, oocytes were separated from ovarian follicle by tweezers, and isolated oocytes were placed in antibiotics containing modified Birth's solution (88 mM of NaCl, 1 mM of KCl, 2.4 mM of NaHCO3, 0.82 mM of MgSO4, 15 mM of HEPES, pH 7.6, and 0.1 v/v % of mixture solution containing of penicillin and streptomycin for incubation; Sigma Co.). […] In oocytes, heterogeneous quintuple [(α4)2(β2)3] was composed by translation of injected cRNAs, and ion channel receptors were constructed on cell membrane.
(3) Agonist Activities at Human α4β2 Subtype of Nicotinic Acetylcholine Receptors
The recordings of responses at human α4β2 subtype of nicotinic acetylcholine receptors by means of membrane potential holding method were performed as follow. […] The membrane electric potentials were held at −50 mV by mean of the two electric membranes potential holding method (CEZ-1250; Nihon Kohden Co.). Test compounds were added to the perfusion solution, and recorded the peak strength of induced inward current. In order to normalize the responses of test compounds, the responses with acetylcholine (Ach) were recorded before and after application of the test compounds. Generally in the oocytes just after isolated, the response of intrinsic muscarinic acetylcholine receptors, which is inward electric current caused by activation of calcium dependence chloride ion channels with increase of the intracellular calcium concentration by stimulation of receptors, is observed.

T1 sequence (P43681 29-627 limits assumed): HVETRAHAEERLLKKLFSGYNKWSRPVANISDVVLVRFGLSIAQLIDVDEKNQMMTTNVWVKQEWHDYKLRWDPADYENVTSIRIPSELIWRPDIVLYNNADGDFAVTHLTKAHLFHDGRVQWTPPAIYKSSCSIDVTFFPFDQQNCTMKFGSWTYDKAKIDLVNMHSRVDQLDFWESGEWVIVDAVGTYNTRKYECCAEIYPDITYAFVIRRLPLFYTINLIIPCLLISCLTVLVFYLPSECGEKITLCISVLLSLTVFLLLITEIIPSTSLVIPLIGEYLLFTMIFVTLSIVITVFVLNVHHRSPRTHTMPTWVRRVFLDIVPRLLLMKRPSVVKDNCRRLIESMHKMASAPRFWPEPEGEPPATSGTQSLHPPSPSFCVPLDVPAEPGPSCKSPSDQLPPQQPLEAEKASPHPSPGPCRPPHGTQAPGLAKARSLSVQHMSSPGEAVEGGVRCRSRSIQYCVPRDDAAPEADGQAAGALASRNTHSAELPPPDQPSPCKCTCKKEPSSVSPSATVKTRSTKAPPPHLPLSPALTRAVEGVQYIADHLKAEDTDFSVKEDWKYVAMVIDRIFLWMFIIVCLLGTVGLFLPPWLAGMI
T1 sequence (P17787 26-502): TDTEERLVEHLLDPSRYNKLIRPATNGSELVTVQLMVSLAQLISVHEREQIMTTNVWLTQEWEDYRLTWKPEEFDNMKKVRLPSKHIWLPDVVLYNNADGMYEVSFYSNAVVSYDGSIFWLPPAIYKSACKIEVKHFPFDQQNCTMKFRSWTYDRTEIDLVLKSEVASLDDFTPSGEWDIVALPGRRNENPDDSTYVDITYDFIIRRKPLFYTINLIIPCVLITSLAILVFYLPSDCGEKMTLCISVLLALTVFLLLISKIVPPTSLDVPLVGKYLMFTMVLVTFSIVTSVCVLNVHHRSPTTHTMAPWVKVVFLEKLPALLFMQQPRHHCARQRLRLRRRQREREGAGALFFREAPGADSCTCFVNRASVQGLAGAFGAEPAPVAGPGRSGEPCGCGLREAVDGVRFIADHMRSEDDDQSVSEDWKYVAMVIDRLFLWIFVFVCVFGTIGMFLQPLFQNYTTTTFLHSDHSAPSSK

With `N=C1NCCCN1CCc1ccc(Cl)nc1` [Compound 12, 1-[2-(6-chloro-3-pyridyl)ethyl]-2-imino-1,2,3,4,5,6-hexahydro-pyrimidine] the “control % by response at 100 μM of the test compounds” value was “(8%)”.
In the case of `Nc1nccn1CCc1cnccn1` [Compound 31, 2-amino-1-[2-(2-pyrazinyl)ethyl]imidazole], the “control % by response at 100 μM of the test compounds” value is reported as “(15%)”.

Same assay, conditions: Xenopus oocytes, held at −50 mV, peak inward current; read-out: Agonist activity (ED50)

Going from `Nc1nccn1CCc1cccnc1` [Compound 14, 2-amino-1-[2-(3-pyridyl)ethyl]imidazole] to `Nc1nccn1CCc1ccnnc1` [Compound 34, 2-amino-1-[2-(4-pyridazinyl)ethyl]imidazole], the EC50 rises from 2 µM to 170 µM (85-fold).

First: Nc1nccn1CCc1cncc(Br)c1 [Compound 25, 2-amino-1-[2-(5-bromo-3-pyridyl)ethyl]imidazole]
Second: Cc1cncc(CCn2ccnc2N)c1 [Compound 27, 2-amino-1-[2-(5-methyl-3-pyridyl)ethyl]imidazole]
The EC50 of the first is 2.1-fold lower: 3 µM for the first, 6.2 µM for the second. The first is the more potent here.

Compared with `Nc1nccn1CCc1cnc(Cl)s1` [Compound 23, 2-amino-1-[2-(2-chloro-5-thiazolyl)ethyl]imidazole], `Nc1nccn1CCc1cnc(Cl)c(Cl)c1` [Compound 13, 2-amino-1-[2-(5,6-dichloro-3-pyridyl)ethyl]-imidazole] is 5.4-fold lower in EC50: 13 µM for the first, 2.4 µM for the second.

First: Cc1ccc(CCn2ccnc2N)cn1 [Compound 11, 2-amino-1-[2-(6-methyl-3-pyridyl)ethyl]imidazole]
Second: Nc1nccn1CCc1cncnc1 [Compound 29, 2-amino-1-[2-(5-pyrimidyl)ethyl]imidazole]
The EC50 of the first is 2-fold higher: 7.5 µM for the first, 3.7 µM for the second.

With `Nc1nccn1CCc1cccnn1` [Compound 30, 2-amino-1-[2-(3-pyridazinyl)ethyl]imidazole] the EC50 was 46 µM.
